Reference: the supplement of paper PMC10307832

Tests used:
Assay in all cases: relative viability (nuclei count vs DMSO), 5 days (fraction); higher = more cells survive
AZ628 + Alpelisib = compound: CC1=C(C=C(C=C1)NC(=O)C2=CC(=CC=C2)C(C)(C)C#N)NC3=CC4=C(C=C3)N=CN(C4=O)C [AZ628] + Cc1nc(NC(=O)N2CCC[C@H]2C(N)=O)sc1-c1ccnc(C(C)(C)C(F)(F)F)c1 [Alpelisib] (partner 2 µM)
Summary of the method: (§1)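 Lung cancer cell lines, seeded in 1536-well plates, were treated the following day by pin tool with a single drug or with five library-drug doses (not always all listed) in √10 steps on top of a fixed anchor-drug dose. Cells were fixed and nuclei stained in one step after 5 days, and nuclei were counted. Relative viability is the nuclei count for treated wells divided by that for vehicle wells, reported as medians of duplicate plates.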

Darinaparsin + Dasatinib = compound: C[As](C)SC[C@H](NC(=O)CC[C@H](N)C(=O)O)C(=O)NCC(=O)O [Darinaparsin] + Cc1nc(Nc2ncc(C(=O)Nc3c(C)cccc3Cl)s2)cc(N2CCN(CCO)CC2)n1 [Dasatinib] (partner 0.075 µM)
Summary of the method: as §1

AZ628 + Vorinostat = compound: CC1=C(C=C(C=C1)NC(=O)C2=CC(=CC=C2)C(C)(C)C#N)NC3=CC4=C(C=C3)N=CN(C4=O)C [AZ628] + O=C(CCCCCCC(=O)Nc1ccccc1)NO [Vorinostat] (partner 1 µM)
Summary of the method: as §1

[1] = compound: C[As](C)SC[C@H](NC(=O)CC[C@H](N)C(=O)O)C(=O)NCC(=O)O [Darinaparsin] + Cc1cc(Nc2cc(N3CCN(C)CC3)nc(Sc3ccc(NC(=O)C4CC4)cc3)n2)n[nH]1 [Tozasertib] (partner 0.1 µM)
Summary of the method: as §1

| Cell Line | relative viability (AZ628 + Alpelisib; first compound 0.08 µM) | relative viability (AZ628 + Alpelisib; first compound 0.253 µM) | relative viability (AZ628 + Alpelisib; first compound 0.8 µM) | relative viability (AZ628 + Alpelisib; first compound 2.53 µM) | relative viability (AZ628 + Alpelisib; first compound 8 µM) | relative viability (Darinaparsin + Dasatinib; first compound 0.08 µM) | relative viability (Darinaparsin + Dasatinib; first compound 0.8 µM) | relative viability (Darinaparsin + Dasatinib; first compound 2.53 µM) | relative viability (Darinaparsin + Dasatinib; first compound 8 µM) | relative viability (AZ628 + Vorinostat; first compound 0.08 µM) | relative viability (AZ628 + Vorinostat; first compound 0.253 µM) | relative viability (AZ628 + Vorinostat; first compound 0.8 µM) | relative viability (AZ628 + Vorinostat; first compound 2.53 µM) | relative viability (AZ628 + Vorinostat; first compound 8 µM) | relative viability ([1]; first compound 0.08 µM) | relative viability ([1]; first compound 0.8 µM) | relative viability ([1]; first compound 2.53 µM) | relative viability ([1]; first compound 8 µM) |
| --- | --- | --- | --- | --- | --- | --- | --- | --- | --- | --- | --- | --- | --- | --- | --- | --- | --- | --- |
| 201T | 1.08 | 1.03 | 1.13 | 1.09 | 1.12 | 0.571 | 0.533 | 0.66 | 0.627 | 1.06 | 1.02 | 1.08 | 1.04 | 1.08 | 1.04 | 0.914 | 0.994 | 1.12 |
| A549 | 0.688 | 0.677 | 0.5 | 0.565 | 0.258 | – | – | – | – | – | – | – | – | – | – | – | – | – |
| A-427 | 1.02 | 1.06 | 0.624 | 0.635 | 0.222 | 0.843 | 0.809 | 0.707 | 0.733 | 1.02 | 0.811 | 0.82 | 0.787 | 0.437 | 0.2 | 0.215 | 0.177 | 0.193 |
| ABC-1 | 1.16 | 1.05 | 1.17 | 1.1 | 0.906 | 0.56 | 0.451 | 0.572 | 0.715 | 1.26 | 0.789 | 1.27 | 0.955 | 1.07 | 0.169 | 0.205 | 0.2 | 0.192 |
| BEN | 1.22 | 0.87 | 0.791 | 0.963 | 0.835 | 0.305 | 0.308 | 0.31 | 0.371 | 0.615 | 0.513 | 0.571 | 0.557 | 0.589 | 0.489 | 0.498 | 0.463 | 0.444 |
| CAL-12T | 1.29 | – | 1.2 | 1.34 | 0.503 | 0.337 | 0.381 | 0.234 | 0.315 | 0.802 | 0.634 | 0.643 | 0.522 | 0.417 | 0.343 | 0.3 | 0.326 | 0.341 |
| COR-L23 | 0.864 | 0.732 | 0.762 | 0.808 | 0.334 | 0.694 | 0.493 | 0.39 | 0.497 | 0.528 | 0.426 | 0.491 | 0.473 | 0.321 | 0.208 | 0.225 | 0.24 | 0.196 |
| COR-L 105 | 0.998 | 1.27 | 0.921 | 1.03 | 0.632 | 0.32 | 0.31 | 0.309 | 0.277 | 0.881 | 0.886 | 0.796 | 0.794 | 0.654 | 0.316 | 0.369 | 0.315 | 0.32 |
| Calu-6 | 0.937 | 0.835 | 0.416 | 0.541 | 0.171 | – | – | – | – | – | – | – | – | – | – | – | – | – |
| ChaGo-K-1 | – | – | – | – | – | 0.525 | 0.611 | 0.72 | 0.649 | 0.773 | 0.75 | 0.753 | 0.754 | 0.743 | 0.266 | 0.206 | 0.242 | 0.232 |
| EBC-1 | 0.865 | 0.859 | 0.949 | 0.811 | 0.298 | – | – | – | – | – | – | – | – | – | – | – | – | – |
| EKVX | 0.909 | 0.903 | 0.949 | 0.983 | 0.866 | 0.504 | 0.488 | 0.53 | 0.512 | 0.952 | 0.698 | 0.848 | 0.579 | 0.53 | 0.431 | 0.448 | 0.32 | 0.4 |
| EMC-BAC-2 | 0.704 | 0.645 | 0.681 | 0.608 | 0.706 | 0.34 | 0.368 | 0.302 | 0.35 | 0.878 | 0.57 | 0.642 | 0.562 | 0.449 | 0.251 | 0.28 | 0.299 | 0.277 |
| EPLC-272H | 0.951 | 0.85 | 0.892 | 0.908 | 0.641 | – | 0.275 | 0.223 | 0.371 | 0.557 | 0.518 | 0.4 | 0.332 | 0.274 | – | 0.308 | 0.229 | 0.277 |
| H3255 | 0.724 | 0.653 | 0.75 | 0.747 | 0.496 | 0.355 | 0.346 | 0.317 | 0.338 | 0.838 | 0.781 | 0.846 | 0.87 | 0.824 | 0.605 | 0.585 | 0.63 | 0.598 |
| HARA | 0.68 | 0.763 | 0.907 | 0.726 | 0.391 | 0.3 | 0.282 | 0.232 | 0.259 | 0.706 | 0.453 | 0.405 | 0.399 | 0.183 | 0.153 | 0.103 | 0.125 | 0.0804 |
| HCC-15 | 0.967 | 0.742 | 0.707 | 0.699 | 0.392 | 0.675 | 0.562 | 0.577 | 0.628 | 0.867 | 0.728 | 0.693 | 0.61 | 0.348 | 0.525 | 0.347 | 0.298 | 0.364 |
| HCC-44 | 0.754 | 0.796 | 0.801 | 0.68 | 0.705 | – | – | – | – | 1.16 | 1.17 | 1.15 | 1.02 | 0.491 | 1.21 | 0.927 | 0.769 | 0.87 |
| HCC-78 | 0.5 | 0.336 | 0.346 | 0.368 | 0.504 | 0.382 | 0.384 | 0.375 | 0.386 | 0.523 | 0.439 | 0.465 | 0.565 | 0.457 | 0.449 | 0.461 | 0.386 | 0.491 |
| HCC-366 | 0.356 | 0.317 | 0.154 | 0.26 | 0.12 | 0.709 | 0.758 | 0.734 | 1.07 | 0.404 | 0.39 | 0.399 | 0.255 | 0.396 | 0.147 | 0.0892 | 0.149 | 0.168 |
